# Patent US20030118627A1 (DABUR RESEARCH FOUNDATION, priority 2001, published 2003)
# Legend:
# MOLT 4 = assay: MTT cytotoxicity assay, MOLT 4 leukemia; assay type: cell-based; conditions: Homo sapiens; for cytotoxicity at 1000 µM / cytotoxicity at 2500 µM / cytotoxicity at 4000 µM / cytotoxicity at 5000 µM / cytotoxicity at 10000 µM: MOLT 4 Leukemia, read-out: Percent cytotoxicity; for cytotoxicity at 1000 µM: 1.0 mM; for cytotoxicity at 2500 µM: 2.5 mM; for cytotoxicity at 4000 µM: 4 mM; for cytotoxicity at 5000 µM: 5 mM; for cytotoxicity at 10000 µM: 10 mM
# Procedure: (§1) Briefly, a […] MTT cytotoxicity assay was performed, which is based on the principle of uptake of MTT (3-(4,5-dimethylthiazol-2-yl)-2,5-diphenyl tetrazolium bromide), a tetrazolium salt, by the metabolically active cells where it is metabolized by active mitochondria into a blue colored formazan product that is read spectrophoto-metrically. MTT was dissolved in phosphate buffered saline with a pH of 7.4 to obtain an MTT concentration of 5 mg/ml; the resulting mixture was filtered through a 0.22 micron filter to sterilize and remove a small amount of insoluble residue. For each type of tumor cell, 20,000 to 50,000 cells were seeded in a 96-well culture plate and incubated with the combination in a CO2 incubator for 24 hours. […] The assay was terminated after 24 hours by adding 100 ug (20 ul) of MTT to each well, then incubating for additional one hour, and finally adding 50 ul of 10% SDS-0.01N HCl to each well to lyse the cells and dissolve formazan. After incubating for one hour, the plate was read spectrophotometrically at 540 nm and the percentage cytotoxicity calculated.
# PA 1 = assay: MTT cytotoxicity assay, PA 1 ovary; assay type: cell-based; conditions: Homo sapiens; for IC50: 24 h, PA 1 Ovarian, read-out: ED50 values of cytotoxicity; for cytotoxicity at 1000 µM / cytotoxicity at 2500 µM / cytotoxicity at 4000 µM / cytotoxicity at 5000 µM / cytotoxicity at 10000 µM: PA 1 Ovary, read-out: Percent cytotoxicity; for cytotoxicity at 1000 µM: 1.0 mM; for cytotoxicity at 2500 µM: 2.5 mM; for cytotoxicity at 4000 µM: 4 mM; for cytotoxicity at 5000 µM: 5 mM; for cytotoxicity at 10000 µM: 10 mM
# Procedure: as §1
# PTC = assay: MTT cytotoxicity assay, PTC colon; assay type: cell-based; conditions: Homo sapiens; for cytotoxicity at 1000 µM: 1.0 mM; for cytotoxicity at 1000 µM / cytotoxicity at 2500 µM / cytotoxicity at 4000 µM / cytotoxicity at 5000 µM / cytotoxicity at 10000 µM: read-out: Percent cytotoxicity; for cytotoxicity at 2500 µM: 2.5 mM; for cytotoxicity at 4000 µM: 4 mM; for cytotoxicity at 5000 µM: 5 mM; for cytotoxicity at 10000 µM: 10 mM
# Procedure: as §1
# Miapaca2 = assay: MTT cytotoxicity assay, Miapaca2 pancreas; assay type: cell-based; conditions: Homo sapiens; for cytotoxicity at 1000 µM: MIA PaCa-2, 1.0 mM; for cytotoxicity at 1000 µM / cytotoxicity at 2500 µM / cytotoxicity at 4000 µM / cytotoxicity at 5000 µM / cytotoxicity at 10000 µM: read-out: Percent cytotoxicity; for cytotoxicity at 2500 µM: MIA PaCa-2, 2.5 mM; for cytotoxicity at 4000 µM: MIA PaCa-2, 4 mM; for cytotoxicity at 5000 µM: MIA PaCa-2, 5 mM; for cytotoxicity at 10000 µM: MIA PaCa-2, 10 mM
# Procedure: as §1
# DU145 = assay: MTT cytotoxicity assay, DU145 prostate; assay type: cell-based; conditions: Homo sapiens; for cytotoxicity at 1000 µM: DU-145, 1.0 mM; for cytotoxicity at 1000 µM / cytotoxicity at 2500 µM / cytotoxicity at 4000 µM / cytotoxicity at 5000 µM / cytotoxicity at 10000 µM: read-out: Percent cytotoxicity; for cytotoxicity at 2500 µM: DU-145, 2.5 mM; for cytotoxicity at 4000 µM: DU-145, 4 mM; for cytotoxicity at 5000 µM: DU-145, 5 mM; for cytotoxicity at 10000 µM: DU-145, 10 mM
# Procedure: as §1
# L132 = assay: MTT cytotoxicity assay, L132 lung; assay type: cell-based; conditions: Homo sapiens; for cytotoxicity at 1000 µM: 1.0 mM; for cytotoxicity at 1000 µM / cytotoxicity at 2500 µM / cytotoxicity at 4000 µM / cytotoxicity at 5000 µM / cytotoxicity at 10000 µM: read-out: Percent cytotoxicity; for cytotoxicity at 2500 µM: 2.5 mM; for cytotoxicity at 4000 µM: 4 mM; for cytotoxicity at 5000 µM: 5 mM; for cytotoxicity at 10000 µM: 10 mM
# Procedure: as §1
# MCF7 = assay: MTT cytotoxicity assay, MCF7 breast; assay type: cell-based; conditions: Homo sapiens; for cytotoxicity at 1000 µM / cytotoxicity at 2500 µM / cytotoxicity at 4000 µM / cytotoxicity at 5000 µM / cytotoxicity at 10000 µM: MCF7 breast, read-out: Percent cytotoxicity; for cytotoxicity at 1000 µM: 1.0 mM; for cytotoxicity at 2500 µM: 2.5 mM; for cytotoxicity at 4000 µM: 4 mM; for cytotoxicity at 5000 µM: 5 mM; for cytotoxicity at 10000 µM: 10 mM
# Procedure: as §1
# U87MG = assay: MTT cytotoxicity assay, U87MG glioblastoma; assay type: cell-based; conditions: Homo sapiens, U-87 MG, 24 h, read-out: ED50 values of cytotoxicity
# Procedure: as §1
# KB = assay: MTT cytotoxicity assay, KB oral; assay type: cell-based; conditions: Homo sapiens, 24 h, read-out: ED50 values of cytotoxicity
# Procedure: as §1
# Hep2 = assay: MTT cytotoxicity assay, Hep2 larynx; assay type: cell-based; conditions: Homo sapiens, HEp-2, 24 h, read-out: ED50 values of cytotoxicity
# Procedure: as §1
# 293 = assay: MTT cytotoxicity assay, 293 kidney; assay type: cell-based; conditions: Homo sapiens, HEK293, 24 h, read-out: ED50 values of cytotoxicity
# Procedure: as §1
# INT 407 = assay: MTT cytotoxicity assay, INT 407 intestine; assay type: cell-based; conditions: Homo sapiens, 24 h, read-out: ED50 values of cytotoxicity
# Procedure: as §1
# Swiss albino mice = conditions: both, mouse, in vivo, po, 15 days
# Procedure: Acute toxicity studies were performed using the oral route of administration.
# A batch of 5 female and 5 male mice each was administered the test substance by oral route. […] Another batch of 5 female and 5 male served as control.
# Observations were made three times on the day of dosing and twice daily thereafter for the remainder of 14 days or until reversible toxic signs or symptoms subsided. All gross visible toxic signs and symptoms were recorded. Body weights were recorded prior to dosing and weekly thereafter.
# [1] = 24 h, read-out: ED50 values of cytotoxicity
structure (smiles),measurement,setting,value
"CC(=O)C(O)N1C(=O)CCC1C(=O)OCc1ccccc1 (stereo not shown) [MGC-3, N-(1-hydroxy-2-ketopropyl)-benzylpyroglutamate]",IC50,"MOLT 4; 24 h, Molt 4 Leukemia, read-out: ED50 values of cytotoxicity",1650 ± 500 µM
same,cytotoxicity at 1000 µM,MOLT 4,42.1 ± 4.3%
same,cytotoxicity at 2500 µM,MOLT 4,54.9 ± 4.3%
same,cytotoxicity at 4000 µM,MOLT 4,65.9 ± 4.3%
same,cytotoxicity at 5000 µM,MOLT 4,87.9 ± 7.3%
same,cytotoxicity at 10000 µM,MOLT 4,88.3 ± 7.4%
same,IC50,PA 1,1800 ± 600 µM
same,cytotoxicity at 1000 µM,PA 1,42.8 ± 4.9%
same,cytotoxicity at 2500 µM,PA 1,64.8 ± 5.9%
same,cytotoxicity at 4000 µM,PA 1,66.9 ± 5.9%
same,cytotoxicity at 5000 µM,PA 1,78.9 ± 7.4%
same,cytotoxicity at 10000 µM,PA 1,88.5 ± 8.4%
same,cytotoxicity at 1000 µM,PTC,0%
same,cytotoxicity at 2500 µM,PTC,32.9 ± 3.8%
same,cytotoxicity at 4000 µM,PTC,54.9 ± 3.8%
same,cytotoxicity at 5000 µM,PTC,56.8 ± 5.7%
same,cytotoxicity at 10000 µM,PTC,86.9 ± 7.6%
same,IC50,PTC; [1],3800 ± 700 µM
same,cytotoxicity at 1000 µM,Miapaca2,0%
same,cytotoxicity at 2500 µM,Miapaca2,0%
same,cytotoxicity at 4000 µM,Miapaca2,0%
same,cytotoxicity at 5000 µM,Miapaca2,12.9 ± 1%
same,cytotoxicity at 10000 µM,Miapaca2,14.1 ± 1.9%
same,IC50,"Miapaca2; MIA PaCa-2, 24 h, read-out: ED50 values of cytotoxicity",> 5000 µM
same,cytotoxicity at 1000 µM,DU145,29.4 ± 4.2%
same,cytotoxicity at 2500 µM,DU145,56.9 ± 4.3%
same,cytotoxicity at 4000 µM,DU145,64.8 ± 6.3%
same,cytotoxicity at 5000 µM,DU145,87.9 ± 8.3%
same,cytotoxicity at 10000 µM,DU145,88.4 ± 4%
same,IC50,"DU145; DU-145, 24 h, read-out: ED50 values of cytotoxicity",1800 ± 200 µM
same,cytotoxicity at 1000 µM,L132,0%
same,cytotoxicity at 2500 µM,L132,30 ± 2.9%
same,cytotoxicity at 4000 µM,L132,45.8 ± 4.5%
same,cytotoxicity at 5000 µM,L132,52.9 ± 5.2%
same,cytotoxicity at 10000 µM,L132,79.4 ± 5.9%
same,IC50,L132; [1],4600 ± 1600 µM
same,IC50,"MCF7; MCF7, 24 h, MCF 7 Breast, read-out: ED50 values of cytotoxicity",> 5000 µM
same,cytotoxicity at 1000 µM,MCF7,0%
same,cytotoxicity at 2500 µM,MCF7,0%
same,cytotoxicity at 4000 µM,MCF7,0%
same,cytotoxicity at 5000 µM,MCF7,2.7 ± 0.1%
same,cytotoxicity at 10000 µM,MCF7,12.4 ± 1%
same,IC50,U87MG,> 5000 µM
same,IC50,KB,2550 ± 400 µM
same,IC50,Hep2,2600 µM
same,IC50,293,2000 ± 300 µM
same,IC50,INT 407,2850 ± 700 µM
"CC(=O)OC(C(C)=O)N1C(=O)CCC1C(=O)OCc1ccccc1 (stereo not shown) [MGC-6, N-(1-acetoxy-2-ketopropyl)-benzylpyroglutamate]",cytotoxicity at 1000 µM,MOLT 4,41.9 ± 4.2%
same,cytotoxicity at 2500 µM,MOLT 4,61.9 ± 5.3%
same,cytotoxicity at 4000 µM,MOLT 4,84.9 ± 7.4%
same,cytotoxicity at 5000 µM,MOLT 4,84.8 ± 3.9%
same,cytotoxicity at 10000 µM,MOLT 4,87.1 ± 6.8%
same,cytotoxicity at 1000 µM,PA 1,42.9 ± 4.9%
same,cytotoxicity at 2500 µM,PA 1,63.9 ± 4.9%
same,cytotoxicity at 4000 µM,PA 1,86.9 ± 6.9%
same,cytotoxicity at 5000 µM,PA 1,88.7 ± 5.9%
same,cytotoxicity at 10000 µM,PA 1,84 ± 7.5%
same,cytotoxicity at 1000 µM,PTC,38.9 ± 3.9%
same,cytotoxicity at 2500 µM,PTC,59.7 ± 5.3%
same,cytotoxicity at 4000 µM,PTC,75.9 ± 4%
same,cytotoxicity at 5000 µM,PTC,80.6 ± 7.4%
same,cytotoxicity at 10000 µM,PTC,86.4 ± 4%
same,cytotoxicity at 1000 µM,Miapaca2,0%
same,cytotoxicity at 2500 µM,Miapaca2,23.7 ± 2%
same,cytotoxicity at 4000 µM,Miapaca2,51.9 ± 5.2%
same,cytotoxicity at 5000 µM,Miapaca2,58.5 ± 5%
same,cytotoxicity at 10000 µM,Miapaca2,67.4 ± 3%
same,cytotoxicity at 1000 µM,DU145,37.8 ± 2.6%
same,cytotoxicity at 2500 µM,DU145,56.9 ± 4.2%
same,cytotoxicity at 4000 µM,DU145,78.9 ± 7.4%
same,cytotoxicity at 5000 µM,DU145,81.5 ± 7.3%
same,cytotoxicity at 10000 µM,DU145,85.9 ± 6.9%
same,cytotoxicity at 1000 µM,L132,2.7 ± 0.2%
same,cytotoxicity at 2500 µM,L132,34.8 ± 5.8%
same,cytotoxicity at 4000 µM,L132,53.9 ± 5%
same,cytotoxicity at 5000 µM,L132,67.9 ± 5%
same,cytotoxicity at 10000 µM,L132,74.7 ± 7.3%
same,cytotoxicity at 1000 µM,MCF7,0%
same,cytotoxicity at 2500 µM,MCF7,0%
same,cytotoxicity at 4000 µM,MCF7,0%
same,cytotoxicity at 5000 µM,MCF7,13.9 ± 1.1%
same,cytotoxicity at 10000 µM,MCF7,23.9 ± 2.9%
same,safe dose,Swiss albino mice,75 mg
CCOC(=O)C1CCC(=O)N1C(OC(C)=O)C(C)=O (stereo not shown) [MGC-8],cytotoxicity at 1000 µM,MOLT 4,40.3 ± 2.9%
same,cytotoxicity at 2500 µM,MOLT 4,58.3 ± 4.9%
same,cytotoxicity at 4000 µM,MOLT 4,65 ± 5.9%
same,cytotoxicity at 5000 µM,MOLT 4,75.2 ± 2.9%
same,cytotoxicity at 10000 µM,MOLT 4,81.9 ± 5.2%
same,IC50,PA 1,1800 ± 700 µM
same,cytotoxicity at 1000 µM,PA 1,38 ± 3.7%
same,cytotoxicity at 2500 µM,PA 1,56 ± 4.8%
same,cytotoxicity at 4000 µM,PA 1,64.5 ± 5.3%
same,cytotoxicity at 5000 µM,PA 1,69 ± 2.1%
same,cytotoxicity at 10000 µM,PA 1,71.7 ± 6.3%
same,cytotoxicity at 1000 µM,PTC,32.2 ± 3.9%
same,cytotoxicity at 2500 µM,PTC,48.6 ± 2.9%
same,cytotoxicity at 4000 µM,PTC,67.7 ± 4.8%
same,cytotoxicity at 5000 µM,PTC,76.3 ± 1%
same,cytotoxicity at 10000 µM,PTC,79.6 ± 3%
same,cytotoxicity at 1000 µM,Miapaca2,0%
same,cytotoxicity at 2500 µM,Miapaca2,61 ± 2.5%
same,cytotoxicity at 4000 µM,Miapaca2,89 ± 4.5%
same,cytotoxicity at 5000 µM,Miapaca2,88 ± 4.5%
same,cytotoxicity at 10000 µM,Miapaca2,86 ± 5%
same,cytotoxicity at 1000 µM,DU145,43 ± 3.8%
same,cytotoxicity at 2500 µM,DU145,67.4 ± 5.2%
same,cytotoxicity at 4000 µM,DU145,69.9 ± 7.9%
same,cytotoxicity at 5000 µM,DU145,73.5 ± 3%
same,cytotoxicity at 10000 µM,DU145,79.3 ± 1.9%
same,cytotoxicity at 1000 µM,L132,8 ± 1.5%
same,cytotoxicity at 2500 µM,L132,12 ± 3.3%
same,cytotoxicity at 4000 µM,L132,25 ± 3.5%
same,cytotoxicity at 5000 µM,L132,35 ± 4.1%
same,cytotoxicity at 10000 µM,L132,45 ± 5.1%
same,cytotoxicity at 1000 µM,MCF7,16 ± 4.1%
same,cytotoxicity at 2500 µM,MCF7,36 ± 3.5%
same,cytotoxicity at 4000 µM,MCF7,70 ± 4.5%
same,cytotoxicity at 5000 µM,MCF7,73 ± 6%
same,cytotoxicity at 10000 µM,MCF7,87 ± 7%
same,IC50,293,2900 ± 500 µM
same,safe dose,Swiss albino mice,100 mg
